Laboratory results published in patent US10905774B2, “Nanocage and use thereof” (KOREA INSTITUTE OF SCIENCE AND TECHNOLOGY, priority 2016, dated 2021).
Entries after “also recorded” stand apart in the source; their conditions may differ.

What was measured:
CT26.CL25 cancer cells [1] = assay: In vivo cancer growth inhibition, intratumoral nanocages; set-up: species or system Balb/c wild-type mice; settings: CT26.CL25 subcutaneous; intratumoral 28 mg/kg
Procedure: (§1) The antitumor activities of the ferritin heavy chain nanocage prepared in Examples 1-1 to 1-5 and the doxorubicin nanocage complex prepared in Example 3 were examined. Particularly, Balb/c wild type mice were used as the experimental animals, and experiments on the above experimental animals were carried out according to the regulations of the KIST animal ethics committee.
First, in order to measure the in vivo anticancer activity of the various ferritin heavy chain nanocages prepared in Examples 1-1 to 1-5, 1×10^6 cells of CT26.CL25 cancer cells expressing β-galactosidase were subcutaneously injected on the left side of Balb/c wild-type mice in order to induce cancer and then each experimental substance (buffer only, FH-mSIRPα WT, FH-SIRPα HV, FH-SIRPγ WT and FH-SIRPγ V2) was injected intratumorally at dose of 28 mg/kg) after 5 day of tumor inoculation, and the length (L) and the width (W) of the tumor tissues were measured using a caliper at intervals of 3 days (FIG. 7A), and then the volume of tumor tissue was calculated using the following formula: Tumor tissue volume (V [mm^3])=(L [mm])×(W [mm])^2×0.5

[2] = system: HT29 human colon cancer cells; assay: Flow cytometry of nanocage binding to HT29 cancer cells; assay type: cell-based; settings: 20, 200, 400 or 600 nM
Procedure: In order to confirm the affinity of cancer cells for nanocages produced using various SIRP proteins prepared in Examples 1-2 to 1-5, respectively in addition to the nanocage prepared in Example 1-1, flow cytometry was performed. Particularly, HT29 human colon cancer cells were seeded into 2×10^5 cells/ml and the wild-type ferritin heavy chain nanocage as a control group, the FH-SIRPα HV nanocage prepared in Example 1-1, the FH-hSIRPα WT nanocage prepared in Example 1, the FH-SIRPγ WT nanocage prepared in Example 1-3 and the FH-SIRPγ V2 nanocage prepared in Example 1-5 were treated at the concentration of 20, 200, 400 or 600 nM, respectively, and the degree of cell binding was measured. Particularly, after treating anti-ferritin heavy chain primary antibody (Abcam, Cambridge, UK, 1:200) and an Alexafluor 488-conjugated donkey anti-rabbit secondary antibody (Jackson ImmunoResearch, Suffolk, UK, 1:400), the cells were sorted according to fluorescence intensity through flow cytometry analysis.

[3] = system: CT26.CL25 mouse colon cancer cells; assay: Phagocytosis rate of CT26.CL25 cells by bone marrow-derived macrophages (counting phagocytized cells); assay type: cell-based; settings: BMDMs cocultured with CT26.CL25 at 37° C. for 4 hours
Procedure: After the staining, phagocytosis rate of macrophages against cancer cells were determined by counting phagocytized cancer cells by the macrophages.

[4] = system: Raji, HT-29, 4T1, CT26 and CT26.CL25 cancer cells co-cultured with BMDMs; assay: Phagocytosis of cancer cells by bone marrow-derived macrophages (FACS); assay type: cell-based, human, mouse; settings: 400 nM; compared with control group
Source text: (§2) Particularly, the present inventors observed the phagocytic action of macrophages and dendritic cells against tumor cells through FACS analysis. First, 3×10^5 cells/ml of bone marrow-derived macrophages (BMDMs) pre-stained with CellTracker Green (Thermo Fisher Scientific, USA) and (a) 1.25×10^6 cells/ml of human Raji Burkitt lymphoma cells, (b) human HT-29 colorectal cancer cells, (c) mouse 4T1 breast cancer cells, (d) mouse CT26 colorectal cancer cells and (e) mouse CT26.CL25 colorectal cancer cells overexpressing β-galactosidase pre-stained with pHrodo Red SE, respectively were seeded in RPMI medium and buffer only (control), the ferritin-SIRPα fusion nanocage (FH-SIRPα HV) of the present invention, the wild-type ferritin heavy chain nanocage (wtFH) and the monomeric SIRPα (mSIRPα) were treated at the concentration of 400 nM, respectively. […] The phagocytosis rate was determined by the following formula. […]

[5] = system: Raji, HT-29, 4T1, CT26 and CT26.CL25 cancer cells co-cultured with BMDCs; assay: Phagocytosis of cancer cells by bone marrow-derived dendritic cells (FACS); assay type: cell-based, human, mouse; settings: 400 nM; compared with control group
Source text: as §2

[6] = system: secondary cancer transplanted to other site; assay: Anticancer memory effect: secondary tumor rechallenge and survival; assay type: in vivo, mice; settings: after 80 days of tumor rechallenge
Source text: The present inventors have hypothesized that the effect of FH-SIRPα nanocage according to an embodiment of the present invention is due to the recruiting of immune cells from the results of Experimental Example 3. Thus, the present inventors analyze growth of secondary cancer transplanted to other site and counted survival rate of the experimental animals after excising primary tumor tissues from the experimental animals.

CT26.CL25 cancer cells [7] = assay: In vivo cancer growth inhibition, tail vein injection of doxorubicin nanocage complex and comparators; set-up: species or system Balb/c wild-type mice; settings: tail vein 1 mg/kg; for tumor tissues excised after 25 days of cancer cell injection: day 25
Procedure: as §1
In addition, the present inventors investigated the in vivo anticancer activity of the doxorubicin-encapsulated nanocage complex prepared in Example 3 above. Particularly, 1×10^6 cells of CT26.CL25 cancer cells were subcutaneously injected into the above Balb/c wild-type mice to induce cancer. On the 7th day after the injection of cancer cells, 1 mg/kg of each test substance (buffer only, doxorubicin-loaded FH-SIRPα HV nanocage, doxorubicin-loaded ferritin heavy chain nanocage, doxorubicin+recombinant SIRPα, doxorubicin only, FH-SIRPα HV nanocage, ferritin heavy chain nanocage or recombinant SIRPα) was injected first by the tail vein and further injected four times at interval of 3 days at the same dose. The animals were sacrificed for 25 days after the injection of cancer cells, and the tumor tissues were excised and an ex vivo image was taken (FIG. 7D). Further, the volume of the tumor tissue over time before the sacrifice of the experimental animals was recorded from 7 days after the injection of cancer cells at the interval of 3 days by calculating using the following formula after measuring length (L) and width (W) of tumor tissues using a caliper: Tumor tissue volume (V [mm^3])=(L [mm])×(W [mm])^2×0.5

Human CD47 = Human CD47 (Homo sapiens, UniProt Q08722); assay: Surface plasmon resonance (SPR) analysis of affinities and kinetics of binding to human CD47
Procedure: (§3) The present inventors performed fluorescence microscopy to confirm whether the FH-SIRPα HV nanocage prepared in Example 1 specifically binds to CD47 on the surface of cancer cells. Specifically, CT26 mouse colorectal cancer cell line and HT29 human colorectal cancer cell line were inoculated at a concentration of 3×10^4 cells/ml. Then, after treating 400 nM of FH-SIRPα HV nanocage prepared in Example 1-1 or same amount of wild-type ferritin heavy chain nanocage as control group, anti-ferritin primary antibody (Abcam, Cambridge, UK) and FITC-conjugated anti-mouse rabbit secondary antibody (Jackson ImmunoResearch, Suffolk, UK) were treated and then fluorescence microscopic images were obtained. […] The affinities and kinetics of FH-SIRP α HV nanocage binding human or mouse CD47 were analyzed by surface plasmon resonance (SPR) analysis and the results are shown in Table 1 below.

Mouse CD47 = molecular target: T1, Mouse CD47 (Mus musculus, UniProt Q61735); assay: Surface plasmon resonance (SPR) analysis of affinities and kinetics of binding to mouse CD47
T1 sequence (Q61735 19-303): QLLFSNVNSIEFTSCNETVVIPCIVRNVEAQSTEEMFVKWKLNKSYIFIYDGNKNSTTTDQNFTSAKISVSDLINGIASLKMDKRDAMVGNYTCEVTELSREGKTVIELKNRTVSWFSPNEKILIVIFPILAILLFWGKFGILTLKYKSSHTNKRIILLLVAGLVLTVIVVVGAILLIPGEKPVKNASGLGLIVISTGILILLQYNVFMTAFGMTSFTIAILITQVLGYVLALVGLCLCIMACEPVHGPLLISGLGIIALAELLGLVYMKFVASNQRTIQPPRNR
Procedure: as §3

[8] = five injections at interval of 3 days

Sequence of Human CD47 (Q08722 19-323): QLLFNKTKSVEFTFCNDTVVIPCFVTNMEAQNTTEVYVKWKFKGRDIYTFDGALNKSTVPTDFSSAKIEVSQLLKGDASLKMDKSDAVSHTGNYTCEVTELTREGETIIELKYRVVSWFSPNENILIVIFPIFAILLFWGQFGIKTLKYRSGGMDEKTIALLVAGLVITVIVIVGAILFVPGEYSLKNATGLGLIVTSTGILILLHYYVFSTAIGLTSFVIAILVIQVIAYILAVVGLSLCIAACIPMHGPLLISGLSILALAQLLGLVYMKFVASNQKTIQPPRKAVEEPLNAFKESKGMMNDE

FH-hSIRPα WT nanocage: Ferritin heavy chain nanocage of fusion protein with human SIRPα wild-type protein (SEQ ID NO: 92)
antitumor activity (tumor growth) (CT26.CL25 cancer cells [1]): somewhat lowered | degree of cell binding [2]: binds to cancer cells in a concentration-dependent manner | phagocytic activity against cancer cells [3]: exhibited phagocytic activity against cancer cells

wtFH: Wild-type ferritin heavy chain nanocage used as control [reference compound]
phagocytosis of cancer cells by macrophages (BMDMs) [4]: very low | phagocytosis of cancer cells by dendritic cells (BMDCs) [5]: very low | degree of cell binding [2]: did not bind to cancer cells even when the concentration increased

COc1cccc2c1C(=O)c1c(O)c3c(c(O)c1C2=O)C[C@@](O)(C(=O)CO)C[C@@H]3O[C@H]1C[C@H](N)[C@H](O)[C@H](C)O1 [doxorubicin]
survival rate [6]: 50% | tumor tissues excised after 25 days of cancer cell injection (CT26.CL25 cancer cells [7]): limited | anticancer effect (growth of cancer cells) (CT26.CL25 cancer cells [7]; [8]): insignificant; also recorded: not so significant

mSIRPα: Monomeric (recombinant) SIRPα protein used as comparator
Kd (Human CD47): 0.0054 nM | ka (Human CD47): 7e+06 M⁻¹ s⁻¹ | kd (Human CD47): 3.7e-05 s⁻¹ | phagocytosis of cancer cells by macrophages (BMDMs) [4]: significantly increased | Kd (Mouse CD47): 6.2 nM | ka (Mouse CD47): 1.8e+06 M⁻¹ s⁻¹ | kd (Mouse CD47): 0.011 s⁻¹ | survival rate [6]: 50% | phagocytosis of cancer cells by dendritic cells (BMDCs) [5]: significantly increased | tumor tissues excised after 25 days of cancer cell injection (CT26.CL25 cancer cells [7]): same tumor volume as the control group | anticancer effect (growth of cancer cells) (CT26.CL25 cancer cells [7]; [8]): not so significant | volume of the tumor (CT26.CL25 cancer cells [7]; [8]): exceeded 1,000 mm^3
